From ChEMBL document CHEMBL3244188, “Antagonists of slow reacting substance of anaphylaxis. Synthesis of a series of chromone-2-carboxylic acids” (J Med Chem, 1977)

System: Ileum
Experiment: Antagonism of slow reacting substance of anaphylaxis-induced contraction in guinea pig ileum treated 30 secs before SRS-A challenge
Format: functional, tissue-based
Conditions: Cavia porcellus

Row | SMILES | IC50 [µg/mL]
1 | O=C([O-])c1cc(=O)c2c(OCCCCCCCOc3ccccc3)cccc2o1.[Na+] | 0.8
2 | O=C([O-])c1cc(=O)c2c(OCCCCCCCCCOc3ccccc3)cccc2o1.[Na+] | 6
3 | O=C([O-])c1cc(=O)c2c(OCCOc3ccccc3)cccc2o1.[Na+] | 100
4 | O=C([O-])c1cc(=O)c2c(OCCCOc3ccccc3)cccc2o1.[Na+] | 35
5 | O=C([O-])c1cc(=O)c2c(OCCCCCOc3ccccc3)cccc2o1.[Na+] | 17.5
6 | O=C([O-])c1cc(=O)c2cc(OCCCOc3ccccc3)ccc2o1.[Na+] | 3.3
7 | O=C([O-])c1cc(=O)c2cc(OCCCCCOc3ccccc3)ccc2o1.[Na+] | 3.3
8 | O=C([O-])c1cc(=O)c2cc(Cc3ccccc3)ccc2o1.[Na+] | 6.6
9 | O=C([O-])c1cc(=O)c2cc(CCCc3ccccc3)ccc2o1.[Na+] | 3
10 | O=C([O-])c1cc(=O)c2cc(CCCCCc3ccccc3)ccc2o1.[Na+] | 4.5
11 | O=C([O-])c1cc(=O)c2ccc(OCCOc3ccccc3)cc2o1.[Na+] | 15
12 | O=C([O-])c1cc(=O)c2ccc(OCCCOc3ccccc3)cc2o1.[Na+] | 1.4
13 | O=C([O-])c1cc(=O)c2ccc(OCCCCCOc3ccccc3)cc2o1.[Na+] | 0.4
14 | O=C([O-])c1cc(=O)c2ccc(OCCCCCCCOc3ccccc3)cc2o1.[Na+] | 1.8
15 | O=C([O-])c1cc(=O)c2ccc(OCCCCCCCCCOc3ccccc3)cc2o1.[Na+] | 1.8
16 | O=C([O-])c1cc(=O)c2ccc(OCCCCCSc3ccccc3)cc2o1.[Na+] | 0.4
17 | O=C([O-])c1cc(=O)c2ccc(SCCCCCOc3ccccc3)cc2o1.[Na+] | 0.3
18 | O=C([O-])c1cc(=O)c2ccc(OCCCCCc3ccccc3)cc2o1.[Na+] | 0.6
19 | O=C([O-])c1cc(=O)c2ccc(OCCCCCOc3cccc(OCc4ccccc4)c3)cc2o1.[Na+] | 1
20 | COc1cccc(OCCCCCOc2ccc3c(=O)cc(C(=O)[O-])oc3c2)c1.[Na+] | 1.5
21 | CCCc1ccccc1OCCCOc1cc2oc(C(=O)[O-])cc(=O)c2cc1CCC.[Na+] | 18

Other lines, results leading:

Row | IC50 [µg/mL] | SMILES
22 | 1.8 | C=CCc1ccccc1OCC(O)COc1ccc2c(=O)cc(C(=O)[O-])oc2c1.[Na+] (stereo not drawn)
23 | 50 | O=C([O-])c1cc(=O)c2cccc(OCCCOc3ccccc3)c2o1.[Na+]
24 | 9 | O=C([O-])c1cc(=O)c2cccc(OCCCCCOc3ccccc3)c2o1.[Na+]
25 | 0.9 | C=CCc1ccc(OCCCCCOc2ccc3c(=O)cc(C(=O)[O-])oc3c2)c(C(C)=O)c1O.[Na+]
26 | 1.5 | O=C([O-])c1cc(=O)c2ccc(OCCCCCOc3cccc(O)c3)cc2o1.[Na+]
27 | 3.5 | CC(=O)c1ccc(OCCCCCOc2ccc3c(=O)cc(C(=O)[O-])oc3c2)cc1.[Na+]
28 | 3.9 | C=CCc1c(OCCCCCOc2ccc(C(=O)CN)cc2)ccc2c(=O)cc(C(=O)[O-])oc12.[Na+]
29 | 0.05 | C=CCc1c(OCCCCCOc2cccc(O)c2C(C)=O)ccc2c(=O)cc(C(=O)[O-])oc12.[Na+]
30 | 2.4 | C=CCc1c(OCCCCCOc2ccc(C(C)=O)cc2)ccc2c(=O)cc(C(=O)[O-])oc12.[Na+]
31 | 1.23 | C=CCc1c(OCCCCCOc2ccc3c(=O)cc(C(=O)[O-])oc3c2CC=C)ccc(C(C)=O)c1O.[Na+]
32 | 6.8 | CC(=O)c1ccc(OCCCCCOc2ccc3c(=O)cc(C(=O)[O-])oc3c2)cc1O.[Na+]
33 | 0.18 | CCCc1ccccc1OCCCOc1ccc2c(=O)cc(C(=O)[O-])oc2c1CCC.[Na+]
34 | 0.001 | CCCc1c(OCCCOc2ccc3c(=O)cc(C(=O)[O-])oc3c2CCC)ccc(C(C)=O)c1O.[Na+]
35 | 7 | O=C([O-])c1cc(=O)c2ccc(OCC(O)COc3ccccc3)cc2o1.[Na+] (stereo not drawn)
36 | 28 | CC(=O)c1ccc(OCC(O)COc2ccc3c(=O)cc(C(=O)[O-])oc3c2)cc1O.[Na+] (stereo not drawn)
37 | 0.1 | C=CCc1c(OCC(O)COc2ccc3c(=O)cc(C(=O)[O-])oc3c2)ccc(C(C)=O)c1O.[Na+] (stereo not drawn)
38 | 3.3 | C=CCc1c(OCC(O)COc2ccc(C(C)=O)c(O)c2)ccc2c(=O)cc(C(=O)[O-])oc12.[Na+] (stereo not drawn)
39 | 0.05 | C=CCc1c(OCC(O)COc2ccc3c(=O)cc(C(=O)[O-])oc3c2CC=C)ccc(C(C)=O)c1O.[Na+] (stereo not drawn)
40 | 0.08 | CCCc1c(OCC(O)COc2ccc3c(=O)cc(C(=O)[O-])oc3c2)ccc(C(C)=O)c1O.[Na+] (stereo not drawn)
41 | 2 | CCCc1ccccc1OCC(O)COc1ccc2c(=O)cc(C(=O)[O-])oc2c1.[Na+] (stereo not drawn)
42 | 0.044 | CCCc1ccccc1OCC(O)COc1ccc2c(=O)cc(C(=O)[O-])oc2c1CCC.[Na+] (stereo not drawn)
43 | 1.6 | CCCc1ccccc1OCC(O)COc1cc2oc(C(=O)[O-])cc(=O)c2cc1CCC.[Na+] (stereo not drawn)
44 | 45 | CCCc1c(OCC(O)COc2ccc3c(=O)cc(C(=O)[O-])oc3c2CCC)ccc(C(C)=O)c1OC.[Na+] (stereo not drawn)
45 | 0.15 | CCCc1cc(C(C)=O)ccc1OCC(O)COc1ccc2c(=O)cc(C(=O)[O-])oc2c1CCC.[Na+] (stereo not drawn)
46 | 1 | CCCc1c(OCc2ccccc2)cccc1OCC(O)COc1ccc2c(=O)cc(C(=O)[O-])oc2c1CCC.[Na+] (stereo not drawn)
47 | 0.3 | CCCc1c(OCC(O)COc2cccc(O)c2C(C)=O)ccc2c(=O)cc(C(=O)[O-])oc12.[Na+] (stereo not drawn)
48 | 0.005 | CCCc1c(OCC(O)COc2ccc3c(=O)cc(C(=O)[O-])oc3c2CCC)ccc(C(C)=O)c1O.[Na+] (stereo not drawn) [FPL-55712 SODIUM SALT]
